One test has as its target T1, FBW7 (Homo sapiens, UniProt Q969H0).
T1 construct: expressed in transfected cells; host or cells: 293T
The test is described as follows: In vivo ubiquitination assay, FBW7 substrates. Format: cell-based. The note with it: in the presence of proteasome inhibitor. On the procedure:
(§1) In vivo and in vitro ubiquitination assays were performed as described with modification (Lin et al., 2009; Yang et al., 2009). For in vitro ubiquitination assay, recombinant GST-Akt proteins were expressed, purified and eluted from the bacterial lysates of BL21 competent cells. Flag-Skp2 SCF complex were expressed in 293T cells, immunoprecipitated by anti-Flag antibody, and eluted from Protein A/G beads using Flag peptides according to manufacturers' standard procedures. Purified GST-Akt and Flag-SCF proteins were incubated for 3 h at 37° C. in the absence and presence of Skp2 inhibitor. After incubation, protein mixtures were diluted in E1A Buffer and the supernatant fluid was precleared with Protein A/G beads for 1 h, and immunoprecipitated overnight with anti-Flag antibody, after which Protein A/G beads were added for an additional 1 h. Beads were washed 4 times with E1A Buffer. Proteins were eluted in SDS-sample buffer and subjected to immunoblotting analysis. For in vivo ubiquitination assay, 293T cells were transfected with the indicated plasmids and cultured in the absence or presence of Skp2 inhibitor for 48 h. 6 h before harvest, cells were cultured in the presence of MG132. After cell harvest, cells were lysed by the denatured buffer (6M guanidine-HCl, 0.1M Na2HPO4/NaH2PO4, 10 mM imidazole). […]

The subject of a further test is prostate CSCs. The test is described as follows: ALDH+ cancer stem cell population by FACS. The test is classed as cell-based. On the procedure: FIGS. 6A-G. Skp2 inactivation diminishes cancer stem cell properties and heightens cancer cell sensitivity to chemotherapy. (FIG. 6A) Populations of ALDH^+ cells were determined by FACS analysis in PC3 cells treated with vehicle or compound #25. (FIG. 6B) Populations of ALDH^+ cells were determined by FACS analysis in PC3 cells with control or Skp2 knockdown. (FIG. 6C) Populations of ALDH^+ cells were determined by FACS analysis in PC3 cells with control or Skp2 knockdown treated with vehicle or compound #25. (FIG. 6D) Populations of ALDH^+ cells were determined by FACS analysis in PC3 cells with DMSO or LY294002. (FIG. 6E) Populations of ALDH^+ cells were determined by FACS analysis in LNCaP cells treated with DMSO, LY294002 or compound #25. (FIGS. 6F-G) Prostate sphere-formation assay in PC3 (FIG. 6F) and LNCaP (FIG. 6G) cells treated with DMSO, LY294002 or compound #25. Results are presented as mean values±S.D. ** indicates p<0.01.
(A flow cytometer gives signals particle by particle.)

Another test concerns Hep3B (liver). The test is described as follows: Cell survival assay, Hep3B. Format: cell-based, human. As for the experimental part:
For Skp2 inhibitor administration, 5-10×10^3 of cells with were seeded in 12 wells in triplicate, 24 h later, treated with compound #25 (refreshed every two days). Four days later, cells were harvested, stained with trypan blue, and viable cells were counted directly under the microscope using hemocytometer. For doxorubicin treatment, 8×10^3 of PC3 cells with were seeded in 12 wells in triplicate, 24 h later, treated with various dose of compound #25 in the presence or absence of 10 nM doxorubicin or 25 ng/ml cyclophosphamide for four and three days, respectively (refreshed every two days). After treatment, cells were harvested, stained with trypan blue, and viable cells were counted directly under the microscope using hemocytometer. Cellular senescence was determined by assessing SA-b-gal activity using senescence detection kit according to manufacturers' standard procedures (Calbiochem).

The subject of another test is PC3 cells. The test is described as follows: Cell cycle by PI staining and flow cytometry. Format: cell-based, human. To be noted: PC3 cells treated for 2 days. On the procedure: FIGS. 12A-D. Skp2 inhibitor triggers cell growth suppression and cell cycle arrest at G2/M phase, related to FIG. 4. (FIG. 12A) The impact of Skp2 inhibitor on growth suppression in various cell lines. A panel of cancer cell lines were treated with various doses of Skp2 inhibitor (#25) for 4 days, and viable cell numbers were counted using hemocytometer. Growth inhibition (IC50) by compound #25 was derived from the cell counting using hemocytometer. (FIG. 12B) PC3 cells were treated with or without compound #25 for 2 days and cell cycle were determined by PI staining, followed by flow cytometry analysis. G1 phase=61.3±0.3%, S phase=15.6±0.6% and G2/M phase=20.3±0.3% in DMSO-treated PC3 cells while G1 phase=50.1±0.9%, S phase=13.3±0.8% and G2/M phase=24.5±0.3% in #25-treated PC3 cells. (FIG. 12C) Control- or Skp2-knockdown PC3 cells were treated with or without compound #25 for 2 days and cell cycle were determined by PI staining, followed by flow cytometry analysis. Two clones of Skp2 shRNA were used in this assay. G1 phase=53.1±0.8% and S phase=15.9±0.9% and G2/M phase=26.1±0.6% in control-knockdown PC3 cells, G1 phase=49.5±0.4%, S phase=13.6±0.7% and G2/M phase=29.1±0.5% in one clone of Skp2-silenced PC3 cells, G1 phase=54.5±1.6%, S phase=10.6±0.4% and G2/M phase=28.8±0.2% in another clone of Skp2-silenced PC3 cells. (FIG. 12D) WT or Skp2−/− MEFs were treated with or without compound #25 for 2 days, and cell cycle was determined by PI staining, followed by flow cytometry analysis. G1 phase=50.5±4.6%, S phase=9.1±0.6% and G2/M phase=27.8±0.9% in WT MEFs while G1 phase=27.7±1.3%, S phase=8.2±1.9% and G2/M phase=39.0±1.6% in Skp2−/− MEFs. Results are presented as mean values ±S.D. * indicates p<0.05, ** indicates p<0.01. Results from treatment groups were compared to vehicle-treated group.

The next test concerns the target T2, WT Skp2 (Homo sapiens, UniProt Q13309).
T2 construct: made in house
Briefly: In vitro binding of compound to GST-Skp2 by LC-MS/MS. The note with it: preexisting Skp2-Skp1 complex. As for the experimental part: To corroborate this notion, the in vitro binding assay was performed to compare the binding affinity of compound #25 to WT Skp2 and Skp2 mutants (Trp97Ala and Asp98Ala) using LC-MS/MS analysis. Of note, since the nature of recombinant Skp2 protein was unstable in the absence of Skp1 (Li et al., 2005), the GST-Skp2 WT, GST-Skp2 Trp97Ala and GST-Skp2Asp98Ala mutants subjected to LC-MS/MS analysis were co-expressed, purified and preformed complex with Skp1 (FIG. 10A).

Test [1] concerns the target T3, Skp2-mediated Akt ubiquitination (Homo sapiens, UniProt Q13309).
T3 construct: expressed in transfected cells; host or cells: 293T
Briefly: In vivo Akt ubiquitination assay. The test is classed as cell-based. To be noted: FIG. 1G. On the procedure: as §1

The test system of a further test is β-TRCP. The test is described as follows: In vivo ubiquitination assay, β-TRCP substrates. Format: cell-based. The note with it: in the presence of proteasome inhibitor. On the procedure:
as §1

The target in the next test is T4, Skp2 SCF E3 ligase (Homo sapiens, UniProt Q13309).
T4 construct: expressed in transfected cells; host or cells: 293T
Briefly: In vivo p27 ubiquitination assay in 293T cells. The test is classed as cell-based. To be noted: WT Skp2. As for the experimental part:
as §1

Entries after “also recorded” stand apart in the source; their conditions may differ.

T4 sequence (Q13309 whole entry): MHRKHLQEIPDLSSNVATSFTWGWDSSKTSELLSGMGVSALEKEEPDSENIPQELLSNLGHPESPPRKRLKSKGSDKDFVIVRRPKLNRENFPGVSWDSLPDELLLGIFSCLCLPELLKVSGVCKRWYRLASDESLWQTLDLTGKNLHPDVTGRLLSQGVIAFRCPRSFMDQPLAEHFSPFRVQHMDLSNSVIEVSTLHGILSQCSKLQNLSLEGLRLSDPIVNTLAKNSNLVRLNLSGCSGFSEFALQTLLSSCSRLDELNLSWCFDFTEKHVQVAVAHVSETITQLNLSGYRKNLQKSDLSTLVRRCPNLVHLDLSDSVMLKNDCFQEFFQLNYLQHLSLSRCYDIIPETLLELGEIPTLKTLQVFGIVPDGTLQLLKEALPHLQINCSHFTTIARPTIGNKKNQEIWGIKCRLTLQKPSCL
T2 sequence (Q13309 whole entry): as above
T3 sequence (Q13309 whole entry): as above
T1 sequence (Q969H0 whole entry, species assumed): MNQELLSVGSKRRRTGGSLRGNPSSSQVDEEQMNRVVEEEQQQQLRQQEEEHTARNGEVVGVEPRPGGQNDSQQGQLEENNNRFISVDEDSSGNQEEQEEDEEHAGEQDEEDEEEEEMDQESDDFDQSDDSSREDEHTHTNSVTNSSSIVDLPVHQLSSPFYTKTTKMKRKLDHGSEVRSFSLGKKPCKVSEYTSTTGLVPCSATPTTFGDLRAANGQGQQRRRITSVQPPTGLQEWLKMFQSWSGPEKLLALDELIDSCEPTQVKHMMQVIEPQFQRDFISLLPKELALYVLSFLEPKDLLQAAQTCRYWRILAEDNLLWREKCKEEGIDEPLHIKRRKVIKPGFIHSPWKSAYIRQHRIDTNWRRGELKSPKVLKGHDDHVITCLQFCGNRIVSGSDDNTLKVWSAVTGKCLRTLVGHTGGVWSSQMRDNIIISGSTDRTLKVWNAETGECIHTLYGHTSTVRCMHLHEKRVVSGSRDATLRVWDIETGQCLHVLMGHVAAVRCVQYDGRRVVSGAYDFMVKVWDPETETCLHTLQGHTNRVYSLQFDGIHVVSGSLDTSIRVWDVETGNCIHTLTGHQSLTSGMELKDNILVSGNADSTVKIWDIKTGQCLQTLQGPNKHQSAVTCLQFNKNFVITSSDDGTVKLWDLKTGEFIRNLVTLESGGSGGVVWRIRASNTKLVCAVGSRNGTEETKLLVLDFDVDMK

In the case of `CCc1cc2c(=O)c(-c3nc4ccccc4s3)coc2c(CN2CCCCC2)c1O` [compound #25, 3-(1,3-benzothiazol-2-yl)-6-ethyl-7-hydroxy-8-(1-piperidinylmethyl)-4H-chromen-4-one], the “FBW7-mediated ubiquitination (c-Jun, MCL-1)” value at FBW7 is given as “no appreciable effect”. The “population of prostate CSCs” value in the test on prostate CSCs was “reduce the population of prostate CSCs in a dose dependent manner”. Also, the “population of prostate CSCs upon Skp2 silencing” value in the test on prostate CSCs (Skp2 silencing) is “failed to do so”. For the same compound, the cell viability entry in the test on Hep3B (liver) was “potent suppressive effect on viability”. In the test on PC3 cells, this compound displayed a G1 phase of 50.1±0.9%, a G2/M phase of 24.5±0.3% and a S phase of 13.3±0.8%. On WT Skp2, the “binding to WT Skp2” value was “readily bound”. Moreover, in test [1], the “Skp2-mediated Akt ubiquitination in cells” value is given as “inhibited Skp2-mediated Akt ubiquitination”. Moreover, in the test on β-TRCP, the “β-TRCP-mediated ubiquitination (β-catenin, Snail, IκBα)” value is “no appreciable effect”. In addition, the “Skp2-mediated p27 ubiquitination” value on Skp2 SCF E3 ligase is on record as “inhibited Skp2-mediated p27 ubiquitination in a dose-dependent manner; also recorded: abrogated E3 ligase activity”.

Source of the values: patent US9624211B2, “Anti-cancer compounds” (Board of Regents, The University of Texas System, priority 2013, dated 2017).
